Results from article PMC5684418, “Structural remodeling and oligomerization of human cathelicidin on membranes suggest fibril-like structures as active species” (Scientific Reports, 2017).
Ends that are not written are not given here.

What was measured:
[1] = Peptide-lipid overlay assay (lipid strips); assay type: binding; settings: 100 pmol lipid spots, LL-37 0.04 mg/ml, 1 h room temperature, anti-LL-37 HRP antibody, qualitative
Protocol: The lipid affinity of LL-37 was assessed using peptide-lipid overlay assays of commercially available lipid strips blotted with 100 pmol of biologically relevant lipids (Echelon Biosciences, Salt Lake City, UT), following the manufacturer’s instructions. Lipid strips were blocked with 1% fat-free milk in TBS (150 mM NaCl, 50 mM Tris-HCl, pH 7.6) for 1 h at room temperature and then incubated with LL-37 (0.04 mg/ml) dissolved in 10 mM NaHCO3, 100 mM NaCl, 5 mM sodium phosphate, pH 8, plus 1% fat-free milk in TBS for 1 h at room temperature. The lipid strips were first washed with TBS buffer three times, and then incubated overnight at 4 °C in a solution of TBS containing 1% fat free milk and the anti-LL-37 HRP-labelled antibody (Innovagen, Sweden) in a 1:2000 dilution. After being washed three times with TBS, the peptide was detected by chemoluminescence using the super-signal western femto maximum sensitivity substrate kit (Thermo Scientific, Pierce Biotechnology, Inc).

[2] = Oligomerization by size exclusion chromatography (SEC); assay type: physicochemical
Protocol: The oligomeric state of the peptide in the absence and presence of detergents was characterized on Superdex75 10/300 GL column (GE Healthcare) at peptide concentrations of 0.7 (0.16 mM) or 3.7 mg/ml (0.83 mM) respectively. The column was equilibrated using buffer A containing 100 mM NaCl, 10 mM NaHCO3, 5 mM sodium phosphate, pH 6.8, for the detergent free sample. SEC in the presence of detergents was performed at 0.7 mg/ml (0.16 mM) of LL-37 in buffer A plus the following detergent concentrations: 0.2% LDAO (8.7 mM), 0.05% DDM (0.98 mM), 0.2% DPC (5.6 mM). Peptides were incubated with buffer A and buffer-detergent solutions for 30 minutes before 200 μl samples were loaded onto the column. The flow rate of the column was adjusted to 0.5 ml/min and all runs were performed at room temperature. The peptide retention time was monitored at 215 nm due to the absence of Trp and Tyr residues.

[3] = Analytical ultracentrifugation (AUC), equilibrium sedimentation; assay type: physicochemical; settings: 0.33 mg/ml (0.07 mM) in 50 mM phosphate buffer pH 7.2, 0.04% DDM, 18.000 rpm, 20°C, 230 nm; data not shown
Excerpt: Supplementa ry mat eria l to the paper:
Structural remodeling and oligomerization of human cathelicidin on membranes […]
by Enea Sancho-V aello, Patrice François, Eve-Julie Bonetti, Hauke Lilie, Sebastian Finger, Fernando Gil-Ortiz, Davi d Gil -Carton, Kornelius Zeth
Peptides, lipids and detergents
All peptides used in our study were chemically synthesized and purchased from Peptide2.0(www.peptide20.com), Proteogenix (www.ProteoGenix.fr) or Genecust (www. gen ecust.com) at purities of higher than 95%. Detergents used in this study are N - o c t yl -β-D-glucoside(Apollo Scientific limited), N-D o d e c yl -β-D-maltoside (Apollo Scientific limited), N-dodecylphosphocholine(Affymetrix) and N-dodec yl-N,N-dimethylamine-N-ox ide(Aff ymetrix ). The lipids 1,2- dioleoyl-sn-gl yc e r o -3- phosphocholine (DOPC), 1,2- dioleoyl-s n gl yc e r o -3- phosphoglycerol(DOPG) and cardiolipin (CL) were purchased from Avanti P olarLipids, Inc. (Alab aster, A L, USA). […]
Centrifugationruns were performed at 18.000 rpm and 20°C; data were collected at a wavelength of 230 nmusi ng a concentration of 0.33 mg/ml (0.07 mM) in 50 mM phosphate buffer, pH 7.2. […] The radial distribution of LL-37 at sedimentation equilibrium in the respective bufferwas linearized according to the Lamm equation 1and the slope dlnc/dr2 with c representingthe peptide concentration at the radial position r was determined experimentally. […]

[4] = system: E. coli
[5] = system: E. coli K12 cells; assay: Cryo-electron microscopy of E. coli incubated with gold-labelled peptide; assay type: cell-based; settings: E. coli K12, 18 µM (80 µg/ml) labelled peptide, 37 °C, 80 minutes
Protocol: E. coli K12 cells were grown at 37 °C at 200 rpm up to an OD of 0.6, and labeled LL-37 nanogold was added to 1 ml culture to reach a final concentration of 18 µM (80 µg/ml). The cultures were further incubated at 37 °C while shaking at 300 rpm (Eppendorf Thermomixer, Hamburg, Germany). After 80 minutes, 200 μl of the sample were taken and cells were pelleted at 3000*g for 10 min at 4 °C. The cell pellet was resuspended using 15 μl of culture solution in order to concentrate the sample and reach a sufficiently high cell density for the visualization in the microscope.

[6] = Cryo-EM of small unilamellar lipid vesicles incubated with gold-labelled peptide; settings: DOPC:DOPG (3:7) SUVs, peptide:lipid 1:250, 15 minutes
Protocol: For the labeling of LL-37 with 1.4 nm nanogold particles (Nanoprobes, Inc), 200 µM of the S37C peptide were reduced using 5 mM of Dithiothreitol (DTT) in the presence of 5 mM EDTA and 100 mM sodium phosphate, pH 7, at room temperature for 1 hour while shaking. The excess of DTT was removed using a 3 kD-cutoff ultrafiltration cell (Amicon, Millipore). Nanogold at 6 nmol concentration was incubated with the peptide at room temperature for 2 hours while shaking. To remove the excess of nanogold, the mixture was loaded onto a Superdex 75 10/300 GL column (GE Healthcare) with 150 mM NaCl and 20 mM sodium phosphate, pH 7. The fractions containing the labeled peptide were concentrated using a 3 kD-cutoff (Amicon, Millipore) ultrafiltration device. The DOPC:DOPG (3:7) SUVs (small unilamellar vesicles) were prepared using a mini-extruder (Avanti Polar Lipids, Inc). Their size and homogeneity was checked using dynamic light scattering (DLS). DOPC:DOPG vesicles were treated with nanogold labeled LL-37 (ratio of peptide to lipid 1:250).

For CC[C@H](C)[C@H](NC(=O)[C@H](CCCCN)NC(=O)[C@H](CCC(=O)O)NC(=O)[C@H](CCCCN)NC(=O)[C@H](CO)NC(=O)[C@H](CCCCN)NC(=O)[C@H](CCCNC(=N)N)NC(=O)[C@H](Cc1ccccc1)NC(=O)[C@H](Cc1ccccc1)NC(=O)[C@H](CC(=O)O)NC(=O)CNC(=O)[C@H](CC(C)C)NC(=O)[C@@H](N)CC(C)C)C(=O)NCC(=O)N[C@@H](CCCCN)C(=O)N[C@@H](CCC(=O)O)C(=O)N[C@@H](Cc1ccccc1)C(=O)N[C@@H](CCCCN)C(=O)N[C@@H](CCCNC(=N)N)C(=O)N[C@H](C(=O)N[C@H](C(=O)N[C@@H](CCC(N)=O)C(=O)N[C@@H](CCCNC(=N)N)C(=O)N[C@H](C(=O)N[C@@H](CCCCN)C(=O)N[C@@H](CC(=O)O)C(=O)N[C@@H](Cc1ccccc1)C(=O)N[C@@H](CC(C)C)C(=O)N[C@@H](CCCNC(=N)N)C(=O)N[C@@H](CC(N)=O)C(=O)N[C@@H](CC(C)C)C(=O)N[C@H](C(=O)N1CCC[C@H]1C(=O)N[C@@H](CCCNC(=N)N)C(=O)N[C@H](C(=O)N[C@@H](CCC(=O)O)C(=O)N[C@@H](CO)C(=O)O)[C@@H](C)O)C(C)C)[C@@H](C)CC)C(C)C)[C@@H](C)CC [LL-37], the “Interaction with PS (lipid overlay)” value ([1]; chemoluminescence) was “strong interactions”, the “Binding to PC (lipid overlay)” value [1] was “does not bind” and the “Interaction with CL (lipid overlay)” value [1] was “strong interactions”. For the same compound, the “Interaction with PE (lipid overlay)” value [1] was “strong interactions”, the “Interaction with PG (lipid overlay)” value [1] was “strong interactions” and the “Interaction with PI (lipid overlay)” value [1] was “do not interact”. For the same compound, the “Interaction with PI-4 (lipid overlay)” value [1] was “do not interact”, the “Interaction with PI-4,5 (lipid overlay)” value [1] was “do not interact” and the “Interaction with phosphatidic-acid (lipid overlay)” value [1] was “strong interactions”. For the same compound, the “Interaction with sulfatide (lipid overlay)” value [1] was “strong interaction”, the “Recognition of PI-3, 4, 5 (lipid overlay)” value [1] was “recognized” and the “Oligomeric state in SEC, dominating species” value ([2]; 0.16 mM (0.7 mg/ml) peptide, no detergent, Superdex75 10/300 GL, 100 mM NaCl, 10 mM NaHCO3, 5 mM sodium phosphate pH 6.8, room temperature, 215 nm) was “monomeric”. The “Oligomeric state in SEC in the presence of detergents” value ([2]; 0.16 mM peptide with 0.2% LDAO, 0.2% DPC or 0.05% DDM, 30 min pre-incubation, buffer pH 6.8, room temperature) was “tetramers or hexamers”, the “Oligomeric state in SEC (retention time range)” value ([2]; 0.83 mM (3.7 mg/ml) peptide, no detergent, Superdex75 10/300 GL, buffer pH 6.8, room temperature, 215 nm) was “tetramer or hexamer” and the “Molecular weight in SEC in the presence of detergents” value ([2]; in the presence of DDM, DPC and LDAO) was “around 30 kD”. For the same compound, the “Molecular weight by AUC in DDM” value [3] was ~ 28 kD.

For LLGDFFRKSKEKIGKEFKRIVQRIKDF [LL-28], the “MIC against E. coli in the presence of detergent” value [4] was 6 µg/mL.

For “gold-labelled LL-37: S37C mutant of LL-37 labeled at the C-terminus with 1.4 nm nanogold particles (LLGDFFRKSKEKIGKEFKRIVQRIKDFLRNLVPRTEC; also: labeled at the C-terminus with 1.4 nm nanogold particles, attachment not given here; UniProt P49913 134-170, looked up, variant S37C)”, the “Effect on E. coli membranes (cryo-EM)” value [5] was “clear perforation of the outer but not of the inner membrane” and the “Membrane perturbation of lipid vesicles (cryo-EM)” value [6] was “no significant membrane perturbation”.
